Measurements taken from patent publication US10563204B2, “Methods of treating cancer harboring hemizygous loss of TP53” (priority 2015, dated 2020).
≈ marks a conversion by molar mass, not a printed value. Numbered stars: 1 amine (or outer) side, 2 acyl side, 3 side chain; on linkers, the order of the positions; unused ones are H or OH. Bridge positions count the residues as written; N and C are the ends. Square brackets hold non-standard residues; d marks the D form. Peptide text beside a SMILES is read from it. I, II: the chains in the order shown. Actinocin(9to1) = Cc1c2oc3c(C)ccc(C(=O)[*:1])c3nc-2c(C(=O)[*:2])c(N)c1=O; NMeV = CN[C@H](C(=O)O)C(C)C; Sar = CNCC(=O)O

What was measured:
[1] = test system: POLR2A^neutral cells (HCT116, SW480); test: Cell proliferation and survival assay, POLR2A^neutral colorectal cancer cells; assay type: cell-based, human
Description: (§1) Equal numbers of cells were plated in 12-well plates in triplicate. Cells were fixed with 10% methanol and stained with 0.1% crystal violet (dissolved in 10% methanol) at indicated times. After staining, wells were washed three times with PBS and destained with acetic acid. The absorbance of the crystal violet solution was measured at 590 nm. For cell survival assay, cells were seeded at a concentration of 1,000 cells per well in 96-well plates and treated with indicated concentrations of α-Amanitin or actinomycin D 24 hours later. Cell viability was quantified using WST-1 reagent (Roche) according to the manufacturer's instructions. All experiments were performed in triplicate.

[2] = test system: POLR2A^loss cells (SW837, SNU283); test: Cell proliferation and survival assay, POLR2A^loss colorectal cancer cells; assay type: cell-based, human
Description: as §1

[3] = test system: POLR2A^loss HCT116 cells; test: Cell proliferation and survival assay, isogenic HCT116 cells with hemizygous loss of POLR2A (CRISPR/Cas9); assay type: cell-based, human
Description: as §1
To exclude the effects of various genetic backgrounds across cell lines, the CRISPR (clustered regularly interspaced short palindromic repeat)/Cas9 system was employed to generate an isogenic HCT116 cell line with hemizygous loss of POLR2A (Wang et al., 2014; Wang et al., 2013). Two single-guide RNAs (sgRNAs) were designed to target the second exon of the POLR2A gene (FIG. 9A). Both of them efficiently targeted and disrupted the POLR2A gene, as shown in the Surveyor analysis (FIG. 9B). Single colonies of HCT116 cells bearing mono-allelic deletion of POLR2A were selected and verified by DNA sequencing (FIG. 9C). Small deletion in the targeted region led to open reading frame shift, producing only a short stretch of the N-terminal peptide without all functional domains of POLR2A. […] However, hemizygous deletion of POLR2A dramatically sensitized HCT116 cells to α-Amanitin treatment with an IC50 of ˜0.1 μg ml^−1, which is 8-fold lower than that of parental HCT116 cells (FIGS. 2G and 2H). […] POLR2A^loss and POLR2A^neutral HCT116 cells expressing Dox-inducible POLR2A shRNA were also generated. […] While a low-dose of Dox (100 ng ml^−1) was sufficient to remarkably kill the POLR2A^loss cells, high doses of Dox only had minimal effects on the POLR2A^neutral cells (FIGS. 2I, 2J, and 9H).

[4] = test system: xhCRC and HCT116 cells; test: Sensitivity of isogenic xhCRC and HCT116 cells (TP53 / POLR2A hemizygous deletion) to α-Amanitin; assay type: cell-based, human
Description: as §1
(§2) Blockage of RNA polymerase may lead to p53 accumulation and activation (Derheimer et al., 2007). To examine the effects of p53 on cell response to POLR2A inhibition, the concomitant deletion of TP53 and POLR2A was recapitulated in HCT116 and xhCRC cell lines (FIGS. 3A and 10A-10C). […] The RNA polymerase II is in charge of mRNA synthesis, an essential function for any type of cells including therapy-resistant tumor cells. The drug sensitivity of POLR2A^neutral and POLR2A^loss cells to three major chemotherapy drugs for colorectal cancer (5-fluorouracil (5-FU), oxaliplatin, and SN-38) was examined. […]

[5] = test system: POLR2A^loss xhCRC cells; assay type: cell-based, human; details: α-Amanitin combined with each of the three drugs
Description: as §1, §2

[6] = test system: POLR2A^neutral xhCRC cells; assay type: cell-based, human; details: α-Amanitin combined with each of the three drugs
Description: as §1, §2

[7] = target: OATP1B3 (Homo sapiens, UniProt Q9NPD5); details: free α-Amanitin; transporter on hepatocyte membrane; cited from earlier work
OATP1B3, sequence (Q9NPD5 whole entry): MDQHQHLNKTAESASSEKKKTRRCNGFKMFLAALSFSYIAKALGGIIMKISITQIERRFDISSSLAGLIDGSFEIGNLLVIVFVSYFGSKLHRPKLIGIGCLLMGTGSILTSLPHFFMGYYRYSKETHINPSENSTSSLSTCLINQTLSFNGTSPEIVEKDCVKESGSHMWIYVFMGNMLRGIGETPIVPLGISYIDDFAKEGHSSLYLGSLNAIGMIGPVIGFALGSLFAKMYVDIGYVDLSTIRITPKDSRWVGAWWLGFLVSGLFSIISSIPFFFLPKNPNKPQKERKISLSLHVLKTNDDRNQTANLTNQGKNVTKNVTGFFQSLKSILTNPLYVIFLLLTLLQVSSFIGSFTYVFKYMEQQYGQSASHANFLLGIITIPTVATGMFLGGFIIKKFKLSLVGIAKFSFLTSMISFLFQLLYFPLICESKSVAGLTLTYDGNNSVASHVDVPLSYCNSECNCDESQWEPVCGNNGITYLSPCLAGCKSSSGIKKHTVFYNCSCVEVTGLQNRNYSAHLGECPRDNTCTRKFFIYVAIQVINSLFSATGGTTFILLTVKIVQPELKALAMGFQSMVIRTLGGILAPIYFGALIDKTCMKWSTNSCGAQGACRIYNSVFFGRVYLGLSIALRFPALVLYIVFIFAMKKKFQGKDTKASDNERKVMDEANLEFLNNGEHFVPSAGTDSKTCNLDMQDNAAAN

[8] = free α-Amanitin; cited from earlier work

SMILES | half-maximum inhibitory concentration (IC50) ([1]; POLR2A^neutral cells (HCT116, SW480)) | cell growth / cell death at high concentrations ([1]; ≥1 μg ml^−1, HCT116, SW480) | resistance to α-Amanitin after re-expression of exogenous POLR2A ([2]; SNU283 and SW837 re-expressing exogenous POLR2A, level comparable to HCT116 and SW480) | cell-killing effect compared with POLR2A^neutral cells ([2]; concentrations from 0 to 1.0 μg ml^−1) | IC50 of POLR2A^neutral cells relative to that of POLR2A^loss cells ([2]; neutral (HCT116, SW480) vs loss (SW837, SNU283)) | cell growth / cell death at high concentrations ([2]; ≥1 μg ml^−1, SW837, SNU283) | IC50 ([3]; HCT116 with hemizygous deletion of POLR2A) | IC50 lower than that of parental HCT116 cells ([3]; POLR2A^loss vs parental HCT116) | change in sensitivity to α-Amanitin ([4]; cells with hemizygous deletion of TP53) | change in sensitivity to α-Amanitin ([4]; cells with hemizygous loss of POLR2A, regardless of TP53 status) | effect on cell killing by 5-FU, oxaliplatin and SN-38 [5] | effect on cell killing by 5-FU, oxaliplatin and SN-38 [6] | binding by OATP1B3 [7] | liver toxicity [8] | sensitivity compared with POLR2A^neutral cells ([2]; actinomycin D treatment) | difference in sensitivity between POLR2A^loss and POLR2A^neutral HCT116 cells ([3]; actinomycin D)
CC[C@H](C)[C@@H]1NC(=O)CNC(=O)[C@@H]2Cc3c([nH]c4cc(O)ccc34)[S+]([O-])C[C@@H](NC(=O)CNC1=O)C(=O)N[C@@H](CC(N)=O)C(=O)N1C[C@H](O)C[C@H]1C(=O)N[C@@H]([C@@H](C)[C@@H](O)CO)C(=O)N2 (stereo in doubt) [α-Amanitin] | ~1.0 µg/mL | complete cell death | restored their resistance | significantly higher levels of cell-killing effect | 10 fold | complete cell death | ~0.1 µg/mL (≈ 0.109 µM) | 8 fold | no significant changes | markedly sensitized | significantly enhanced cell-killing effects | no notable effects | specifically bound | toxic to liver | – | –
Cc1c2oc3c(C)ccc(C(=O)N[C@@H]4C(=O)N[C@H](C(C)C)C(=O)N5CCC[C@H]5C(=O)N(C)CC(=O)N(C)[C@@H](C(C)C)C(=O)O[C@@H]4C)c3nc-2c(C(=O)N[C@@H]2C(=O)N[C@H](C(C)C)C(=O)N3CCC[C@H]3C(=O)N(C)CC(=O)N(C)[C@@H](C(C)C)C(=O)O[C@@H]2C)c(N)c1=O [actinomycin D] (I: T[dV]P[Sar][NMeV] / II: T[dV]P[Sar][NMeV]; ester I:1-I:C, II:1-II:C; linker I:N-II:N via Actinocin(9to1)) | – | – | – | – | – | – | – | – | – | – | – | – | – | – | did not show any greater sensitivity | no substantial difference
